Broadly, the Ki is the equilibrium dissociation constant of an inhibitor or competing ligand from its target.

The values that follow come from PMC8215855 (Journal of medicinal chemistry, 2020).

Data set [1] has as its system sickle cell disease model. Particulars: SCD mice; cited from earlier work.
Data set [2] concerns blood S1P levels. Particulars: rats dosed with 10 mg/kg; cited from earlier work.
The target of the next data set is human SphK1. Particulars: read-out: human SphK1 Ki; cited from earlier work.
The target of a further data set is mouse SphK2. Particulars: read-out: mouse SphK2 Ki; cited from earlier work.
For a further data set, the system named is blood S1P concentration. Particulars: treatment in mice; cited from earlier work.
Data set [3] concerns blood S1P levels. Description: Blood S1P levels in mice after i.p. dose. It is filed as in vivo. Particulars: single 10 mg/kg i.p., C57BL/6 male mice.
Data set [4] can be described thus: Blood concentration of compound in mice after i.p. dose. Type of data set: in vivo. Particulars: single 10 mg/kg i.p., C57BL/6 male mice, LC-MS/MS.

Regarding `Cc1cc(CS(=O)(=O)c2ccccc2)cc(OCc2ccc(CN3CCC[C@@H]3CO)cc2)c1` [Compound 3a], in data set [1], the “blood and plasma S1P levels” value is listed as “reduced”; the erythrocyte sickling entry is on record as “decreased”.
`CCCCCCCCc1ccc(-c2noc(C[C@@H]3CCCN3C(=N)N)n2)cc1` [Compound 4]: in the data set on blood S1P levels [2], the “decrease of blood S1P levels” value is listed as “about 80%”.
Regarding `Cc1ccc(S(=O)(=O)Nc2ccccc2/C=N/c2ccccc2NS(=O)(=O)c2ccc(C)cc2)cc1` [Compound 5], the Ki on human SphK1 is 27 ± 3 µM.
With `CCCCCCCCc1ccc(-c2noc([C@@H]3CCCN3C(=N)N)n2)cc1` [Compound 7], the inhibitory constant (Ki) on mouse SphK2 was 1.3 µM.
On to `CCCCCCCCOc1ccc(-c2noc([C@@H]3CCCN3C(=N)N)n2)cc1C(F)(F)F.Cl` [Compound 8], for which the “blood S1P concentration” value with blood S1P concentration is “increase in blood S1P concentration”.
For `Cl.N=C(N)N1CCC[C@H]1c1nc(-c2ccc(OCc3ccc(C(F)(F)F)cc3)c(C(F)(F)F)c2)no1` [Compound 10, (S)-2-(3-(3-(trifluoromethyl)-4-((4-(trifluoromethyl)benzyl)oxy)phenyl)-1,2,4-oxadiazol-5-yl)pyrrolidine-1-carboximidamide], the “time blood S1P levels remained elevated” value in the data set with blood S1P levels [3] was “up to 6 hours”. The “increase of blood S1P levels” value in the data set on blood S1P levels [3] (after 4 hours) is “nearly two-fold”. Also, in data set [4], the “peak level of compound in blood” value is ~ 8 μM.
